Series [1] deals with T1, FXR (Homo sapiens, UniProt Q96RI1).
T1 sequence (Q96RI1 262-486 limits assumed): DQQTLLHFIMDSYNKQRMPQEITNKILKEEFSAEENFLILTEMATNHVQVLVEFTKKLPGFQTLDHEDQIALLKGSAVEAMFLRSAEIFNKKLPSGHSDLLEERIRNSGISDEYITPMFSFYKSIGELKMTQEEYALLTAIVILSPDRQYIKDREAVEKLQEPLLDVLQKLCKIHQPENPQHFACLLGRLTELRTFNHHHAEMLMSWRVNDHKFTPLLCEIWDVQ
The series is described as follows: Gal4-LBD luciferase selectivity test, FXR.
Experimental: (§1) On the day before transfection, cells were prepared in the 96-well plate with a cell density of 1.5×10^4 cells/well. After 24 hours of adherent growth, transient transfection was performed with the transfection reagent Lipo-fectamine 2000 through a method of dual reporter gene co-transfection. The transfection reagent and the plasmids were separately diluted with the Opti-MEM Reagent. […] After 24 hours of incubation, the luciferase dual reporter gene detection assay kit was used for detecting luminescence signals. Three duplicate wells were set for each sample, and IC50 values (half maximal inhibitory concentrations) were calculated by software.

Series [2] has as its system LNCaP. The series is described as follows: Cell viability (Cell-Titer GLO), LNCaP.
Experimental: (§2) Experimental method: 20 μL of a medium containing 500 to 1000 cells to be detected (the actual number of cells was related to cell cycle and cell volume) was plated into each well of the 384-well clear-bottom microplate. […] An inhibition curve was fitted by GraphPad Prism software, and IC50 was calculated.
The test system of series [3] is 22Rv1. The series is described as follows: Cell viability (Cell-Titer GLO), 22Rv1.
Experimental: as §2
The target in series [4] is T2, RORα (Homo sapiens, UniProt P35398).
T2 sequence (P35398 272-510 limits assumed): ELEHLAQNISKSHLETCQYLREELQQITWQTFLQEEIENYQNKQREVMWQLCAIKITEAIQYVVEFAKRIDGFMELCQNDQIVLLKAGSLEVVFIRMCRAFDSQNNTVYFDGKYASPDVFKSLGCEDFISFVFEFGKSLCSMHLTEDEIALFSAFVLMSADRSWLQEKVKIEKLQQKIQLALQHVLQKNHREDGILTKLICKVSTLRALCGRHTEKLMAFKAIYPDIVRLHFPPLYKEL
The series is described as follows: Gal4-LBD luciferase selectivity test, RORα.
Experimental: as §1

Series [5] concerns the target T3, RORγ (Homo sapiens, UniProt P51449).
T3 sequence (P51449 269-508 limits assumed): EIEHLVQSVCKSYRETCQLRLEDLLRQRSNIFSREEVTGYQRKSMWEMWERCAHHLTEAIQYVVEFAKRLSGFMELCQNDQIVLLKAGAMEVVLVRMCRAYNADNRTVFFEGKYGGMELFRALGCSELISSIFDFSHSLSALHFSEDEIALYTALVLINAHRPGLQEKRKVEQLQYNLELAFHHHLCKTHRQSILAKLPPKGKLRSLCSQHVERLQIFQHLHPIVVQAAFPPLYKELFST
The series is described as follows: luciferase dual reporter gene assay, Gal4-RORγLBD in 293T cells. On the technique in general: In a reporter assay the amount or activity of a reporter protein is the signal.
Experimental: On the day before transfection, cells were prepared in the 96-well plate with a cell density of 1.5×10^4 cells/well. After 24 hours of adherent growth, transient transfection was performed with the transfection reagent Lipo-fectamine 2000 through a method of dual reporter gene co-transfection. The transfection reagent and the plasmids were separately diluted with the Opti-MEM Reagent. Gal4-RORγLBD (25 ng), pG5-luc genes (25 ng) and Renilla (5 ng) were added to each well, and after 24 hours of co-transfection, compounds having different concentrations were added. After 24 hours of incubation, the luciferase dual reporter gene detection assay kit was used for detecting luminescence signals. Three duplicate wells were set for each sample, and IC50 values (half maximal inhibitory concentrations) were calculated by software.

Series [6] has as its target T4, hRORγ (Homo sapiens, UniProt P51449).
T4 sequence (P51449 1-518): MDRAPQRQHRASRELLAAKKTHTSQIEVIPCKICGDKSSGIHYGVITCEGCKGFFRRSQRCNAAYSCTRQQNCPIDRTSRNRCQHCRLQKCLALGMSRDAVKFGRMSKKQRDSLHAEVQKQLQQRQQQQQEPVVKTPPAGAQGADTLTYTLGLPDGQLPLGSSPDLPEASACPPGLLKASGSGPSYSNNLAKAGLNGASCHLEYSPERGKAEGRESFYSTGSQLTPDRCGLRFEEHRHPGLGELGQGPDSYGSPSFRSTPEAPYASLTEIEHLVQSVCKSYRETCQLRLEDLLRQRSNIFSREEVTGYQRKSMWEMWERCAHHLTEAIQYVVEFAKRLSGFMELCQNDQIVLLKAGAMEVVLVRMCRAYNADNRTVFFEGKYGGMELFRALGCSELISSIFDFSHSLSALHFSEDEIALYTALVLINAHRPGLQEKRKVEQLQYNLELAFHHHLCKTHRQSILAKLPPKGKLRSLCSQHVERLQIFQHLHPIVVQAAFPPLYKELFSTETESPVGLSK
The series is described as follows: protein thermal stability shift assay (TSA).

In series [7] the target is T5, RORβ (Homo sapiens, UniProt Q92753).
T5 sequence (Q92753 222-460 limits assumed): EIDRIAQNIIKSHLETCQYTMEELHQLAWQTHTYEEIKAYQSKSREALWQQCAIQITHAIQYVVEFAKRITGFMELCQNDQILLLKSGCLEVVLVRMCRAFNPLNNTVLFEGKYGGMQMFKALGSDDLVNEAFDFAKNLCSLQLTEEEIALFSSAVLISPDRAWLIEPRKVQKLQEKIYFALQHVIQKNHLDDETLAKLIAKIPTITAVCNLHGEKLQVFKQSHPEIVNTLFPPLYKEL
The series is described as follows: Gal4-LBD luciferase selectivity test, RORβ.
Experimental: as §1

In series [8] the target is T6, LXRα (Homo sapiens, UniProt Q13133).
T6 sequence (Q13133 209-447 limits assumed): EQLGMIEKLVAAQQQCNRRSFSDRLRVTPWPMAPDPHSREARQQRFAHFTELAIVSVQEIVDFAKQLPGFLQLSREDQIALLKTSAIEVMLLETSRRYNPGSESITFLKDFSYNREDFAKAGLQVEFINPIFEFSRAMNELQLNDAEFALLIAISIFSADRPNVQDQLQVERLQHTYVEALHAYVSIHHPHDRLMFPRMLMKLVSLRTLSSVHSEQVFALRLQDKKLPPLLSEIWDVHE
Put plainly: Gal4-LBD luciferase selectivity test, LXRα.
Experimental: as §1

Series [9] concerns C4-2B. The series is described as follows: Cell viability (Cell-Titer GLO), C4-2B. The following applies: read-out: Cell Viability IC50 C4-2B.
Experimental: as §2
Series [10] can be described thus: Pharmacokinetic evaluations in SD rats. The format is in vivo. The settings on record: Sprague-Dawley, rat, plasma. The protocol: Experimental materials: the pharmacokinetic analyses were carried out by Shanghai Medicilon Corporation. Sprague-Dawley (SD) rats were provided by Shanghai Super-B&K Laboratory Animal Corp., Ltd.
The stock solution was orally administered to three SD rats at a dose of 25 mg/kg and administered to three SD rats through intravenous injection at a single dose of 5 mg/kg. Blood was collected from jugular veins before the oral administration and 0.25, 0.5, 1, 2, 4, 6, 8 and 24 hours after the oral administration. Blood was collected from jugular veins before the intravenous injection and 0.083, 0.25, 0.5, 1, 2, 4, 6, 8 and 24 hours after the intravenous injection. About 200 μL of the blood samples were collected into heparinized tubes and then immediately centrifuged at 8000 r/min for 6 minutes to obtain blood plasma. The obtained blood plasma was storaged at −80° C. until analysis.

Series [11] concerns 22Rv1 xenograft. The settings on record: for TGI: five days a week for three weeks. Here is the method: Experimental purpose: a xenograft mouse experiment was used for verifying inhibitory effects of the compounds of the present application on tumors in vivo.
Experimental methods: three-week-old male mice (strain: NOD/MrkBomTac-Prkdc^scid) were purchased from Beijing Vital River Laboratory Animal Technology Co., Ltd and used for xenograft tumor establishment. 22Rv1 tumor cells were subcutaneously inoculated on a side of a lower abdomen of each mouse, and each mouse was injected with 3×10^6 cells. […] When the tumor volumes reached about 100 mm^3, the mice were randomly divided into groups (n=6-7 per group) and then administered through oral gavage. […] The length (L) and width (W) of the tumor mass were measured by a caliper, and the volume was expressed in mm^3 and calculated according to the following formula: V=π/6×(L×W^2). TGI was calculated according to the following formula: TGI=[1−(T−T0)/(C−C0)]×100, where T denoted a mean tumor volume on a specific day of the experiment and T0 denoted a mean tumor volume at the beginning of the treatment; similarly, C and C0 denoted a mean tumor volume on a specific day of the experiment and a mean tumor volume of a blank group at the beginning of the treatment, respectively.
Data represented mean tumor volume standard deviation (n=6-7 per group) in each treatment group.

Setting [12] is: IC50 (luciferase detection technique), RORγ transcriptional activity, Table 1.
Setting [13] is: read-out: ΔTm (TSA detection technique), hRORγ 10 μM, compound 200 μM.

Read-outs that look alike come from different tables or passages of the source.

These results are taken from US20230219925A1, “BENZO FIVE-MEMBERED NITROGEN HETEROCYCLIC COMPOUND AND APPLICATION THEREOF” (GUANGZHOU INSTITUTES OF BIOMEDICINE AND HEALTH CHINESE …, priority 2020, published 2023).

What is called IC50 is the concentration needed to halve the response being measured. The ΔTm is the change in melting temperature against a reference sample. Take `CCS(=O)(=O)c1ccc(C(NC(C)=O)C(=O)Nc2ccc(-c3nc4ccc(C)cc4n3[C@@H](C)c3ccc(C)cc3)cc2)cc1` (single isomer, unassigned) [Example 74]: the IC50 in [1] is > 20 µM; in series [2] (Homo sapiens, read-out: Cell Viability IC50 LNCaP) it was 5.2 ± 0.14 µM; in series [3] (Homo sapiens, 22Rv1, read-out: Cell Viability IC50 22Rv1) it was 10.4 ± 1.01 µM; in [4], > 20 µM; in series [5] (setting [12]), < 0.1 µM; in series [7] it was > 20 µM. Moreover, the results for the half-inhibitory concentration (IC50) in series [8] and in series [9] were > 20 µM and 4.19 ± 0.34 µM, respectively. The ΔTm at 200 µM in series [6] (setting [13]) is < 5 °C.

Take `OC(c1ccc(-c2ccc(CN3CCN(Cc4ccncc4)CC3)cc2)c(F)c1)(C(F)(F)F)C(F)(F)F` [SR2211, reference compound]: the 50% inhibitory concentration (IC50) was 6.14 ± 0.04 µM in series [2] (read-out: Cell Viability IC50 LNCaP, 72-96 h); 13.3 ± 1.22 µM in series [3] (read-out: Cell Viability IC50 22Rv1, 22Rv1, 72-96 h); 5.38 ± 0.27 µM in [9] (C4-2B, 72-96 h).

By Cmax is commonly meant the maximum level reached in the sampled fluid or tissue. In the case of `CCS(=O)(=O)c1ccc(CC(=O)Nc2ccc(-c3nc4ccc(C(F)(F)F)cc4n3[C@H](C)c3ccc(F)cc3)cc2)cc1` [Example 67, (R)-2-(4-(ethylsulfonyl)phenyl)-N-(4-(1-(1-(4-fluorophenyl)ethyl)-6-(trifluoromethyl)-1H-benzo[d]imidazol-2-yl)phenyl)acetamide], in series [10] (iv (5 mg/kg)), the concentration peaked (Cmax) at 18400 ng/mL.

Take `CCS(=O)(=O)c1ccc(C(NC(C)=O)C(=O)Nc2ccc(-c3nc4ccc(C)cc4n3[C@@H](C)c3ccc(C)cc3)nc2)cc1` (stereo partly drawn) [Example 80, 2-acetylamino-2-(4-(ethylsulfonyl)phenyl)-N-(6-(6-methyl-1-((S)-1-(p-tolyl)ethyl)-1H-benzo[d]imidazol-2-yl)pyridin-3-yl)acetamide]: the IC50 in series [5] is < 0.1 µM. The ΔTm at 200 µM in series [6] (read-out: ΔTm (TSA detection technique)) is < 5 °C.

Consider `CCS(=O)(=O)c1ccc(CC(=O)Nc2ccc(-c3nc4ccc(C)cc4s3)c(Cl)c2)cc1` [Example 29, N-(3-chloro-4-(6-methylbenzo[d]thiazol-2-yl)phenyl)-2-(4-(ethylsulfonyl)phenyl) acetamide], for which the IC50 in series [5] (setting [12]) lay within 0.1 to 1 µM. In series [6] (setting [13]), the ΔTm at 200 µM was 5 to 10 °C.

As for `CCS(=O)(=O)c1ccc(CC(=O)Nc2ccc(-c3nc4ccc(C(F)(F)F)cc4n3[C@@H](C)c3ccc(F)cc3)cc2)cc1` [Example 68, (S)-2-(4-(ethylsulfonyl)phenyl)-N-(4-(1-(1-(4-fluorophenyl)ethyl)-6-(trifluoromethyl)-1H-benzo[d]imidazol-2-yl)phenyl)acetamide], the values for the TGI in series [11] (10 mg/kg oral) and in series [11] (40 mg/kg oral) were 83% and 109%, respectively. Also, the toxic effect entry in series [11] (22Rv1 mouse xenograft models, all doses) is “without any apparent toxic effect”. The “variations of weights of mice during administration” value in series [11] (all doses (10 and 40 mg/kg oral)) was “no apparent variations in weight”. The maximum concentration (Cmax) in series [10] (iv (5 mg/kg)) came out at 14800 ng/mL; in series [10] (po (25 mg/kg)) it was 5730 ng/mL.

The compound `Cc1ccc2nc(-c3ccc(NS(=O)(=O)Cc4cccc(N)c4)cc3)sc2c1` [Example 24, 1-(3-aminophenyl)-N-(4-(6-methylbenzo[d]thiazol-2-yl)phenyl)methane sulfonamide] gave an IC50 in [5] (setting [12]) of 10 to 100 µM. In series [6] (setting [13]), the thermal shift (ΔTm) at 200 µM is > 10 °C.

Consider `CCS(=O)(=O)c1ccc(C(NC(C)=O)C(=O)Nc2ccc(-c3nc4cc(C(=O)NC(C)C)ccc4n3[C@@H](C)c3ccc(C)cc3)nc2)cc1` (stereo partly drawn) [Example 84, 2-(5-(2-acetylamino-2-(4-(ethylsulfonyl)phenyl)acetylamino)pyridin-2-yl)-N-isopropyl-1-((S)-1-(p-tolyl)ethyl)-1H-benzo[d]imidazol-5-formamide], for which, in [5] (setting [12]), the IC50 lay in the range of 1 to 10 µM. In addition, the ΔTm at 200 µM in series [6] (setting [13]) was 5 to 10 °C.

Consider `CCCCCCC(=O)Nc1ccc(-c2nc3ccc(C)cc3s2)cc1` [Example 26, N-(4-(6-methylbenzo[d]thiazol-2-yl)phenyl)heptanamide], for which the IC50 in [5] (setting [12]) is < 0.1 µM. Also, the ΔTm at 200 µM in series [6] (setting [13]) was > 10 °C.
